# Data reported in patent US6632809B2, “Gyrase inhibitors and uses thereof” (Vertex Pharmaceuticals Incorporated, priority 2000, dated 2003).
# Biological target: DNA gyrase (374 kDa Gyr A2B2 subunit from Staphylococcus aureus) (Staphylococcus aureus, UniProt P0A0K8)
# Assay: Gyrase ATPase Assay
# Assay type: biochemical
# Details: 10 μM concentration; ATPase assay at 30° C., 0.9 mM ATP; average of duplicate values
# Protocol: The ATP hydrolysis activity of DNA gyrase was measure by coupling the production of ADP through pyruvate kinase/lactate dehydrogenase to the oxidation of NADH. This method has been described previously (Tamura and Gellert, 1990, J. Biol. Chem., 265, 21342).
# ATPase assays are carried out at 30° C. in buffered solutions containing 100 mM TRIS pH 7.6, 1.5 mM MgCl2, 50 mM KCl. The coupling system contains (final concentrations) 2.5 mM phosphoenol pyruvate, 200 μM nicotinamide adenine dinucleotide (NADH), 1 mM DTT, […], and 10 ug/ml lactate dehydrogenase. 40 nanomolar enzyme (374 kDa Gyr A2B2 subunit from Staphylococcus aureus) and a DMSO solution of the inhibitor to a final concentration of 4% are added and the reaction mixture is allowed to incubate for 10 minutes at 30° C. The reaction is then started by the addition of ATP to a final concentration of 0.9 mM and the rate of NADH disappearance at 340 nanometers is measured over the course of 10 minutes. The percent inhibition values are determined from rate versus concentration profiles and are reported as the average of duplicate values.
# The compound numbers correspond to the compound numbers in Table 1. Compounds having an activity designated as “A” provided a percent inhibition value below 50 percent; compounds having an activity designated as “B” provided a percent inhibition value between 50 and 75 percent; and compounds having an activity designated as “C” provided a percent inhibition value greater than 75 percent.
# Chain of DNA gyrase (374 kDa Gyr A2B2 subunit from Staphylococcus aureus) (P0A0K8 whole entry): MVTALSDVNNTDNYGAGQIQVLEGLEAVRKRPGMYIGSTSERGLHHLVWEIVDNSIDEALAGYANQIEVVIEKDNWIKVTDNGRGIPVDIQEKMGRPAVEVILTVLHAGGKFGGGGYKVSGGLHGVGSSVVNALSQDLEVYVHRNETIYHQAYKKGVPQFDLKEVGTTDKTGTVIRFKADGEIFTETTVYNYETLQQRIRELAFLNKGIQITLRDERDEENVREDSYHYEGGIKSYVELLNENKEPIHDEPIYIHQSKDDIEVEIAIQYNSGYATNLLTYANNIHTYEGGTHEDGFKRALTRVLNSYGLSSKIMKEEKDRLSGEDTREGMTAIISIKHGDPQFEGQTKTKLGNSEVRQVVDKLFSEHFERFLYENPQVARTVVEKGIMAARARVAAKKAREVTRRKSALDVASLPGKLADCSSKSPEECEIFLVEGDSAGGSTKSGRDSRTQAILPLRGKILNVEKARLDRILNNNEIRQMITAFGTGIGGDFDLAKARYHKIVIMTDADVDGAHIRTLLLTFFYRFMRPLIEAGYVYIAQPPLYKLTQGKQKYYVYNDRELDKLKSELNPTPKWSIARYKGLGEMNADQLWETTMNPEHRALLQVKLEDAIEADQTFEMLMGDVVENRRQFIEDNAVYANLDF
# Chain of DNA gyrase (374 kDa Gyr A2B2 subunit from Staphylococcus aureus) (P20831 whole entry, further chain): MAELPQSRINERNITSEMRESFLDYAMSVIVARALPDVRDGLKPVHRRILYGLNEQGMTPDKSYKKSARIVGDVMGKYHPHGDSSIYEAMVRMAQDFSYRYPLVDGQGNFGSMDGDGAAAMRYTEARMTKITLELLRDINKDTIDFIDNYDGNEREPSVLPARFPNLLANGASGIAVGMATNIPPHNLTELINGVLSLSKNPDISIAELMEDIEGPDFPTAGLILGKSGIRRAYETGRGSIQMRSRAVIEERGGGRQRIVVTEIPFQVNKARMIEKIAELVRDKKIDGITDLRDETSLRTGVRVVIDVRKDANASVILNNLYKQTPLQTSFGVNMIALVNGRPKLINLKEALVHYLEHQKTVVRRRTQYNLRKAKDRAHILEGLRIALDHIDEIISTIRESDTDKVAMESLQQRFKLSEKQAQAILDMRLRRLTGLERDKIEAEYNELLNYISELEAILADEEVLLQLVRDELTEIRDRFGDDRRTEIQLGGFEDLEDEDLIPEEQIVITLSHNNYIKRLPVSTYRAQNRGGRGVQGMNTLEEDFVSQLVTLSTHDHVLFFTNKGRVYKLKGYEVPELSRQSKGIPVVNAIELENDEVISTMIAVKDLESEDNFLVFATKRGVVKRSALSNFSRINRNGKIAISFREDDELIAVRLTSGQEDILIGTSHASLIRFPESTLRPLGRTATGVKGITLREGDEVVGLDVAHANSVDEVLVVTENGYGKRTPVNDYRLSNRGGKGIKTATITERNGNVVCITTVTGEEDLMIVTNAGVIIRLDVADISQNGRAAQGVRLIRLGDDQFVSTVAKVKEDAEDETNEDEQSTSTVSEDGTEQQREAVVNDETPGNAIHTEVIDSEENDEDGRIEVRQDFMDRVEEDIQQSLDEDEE
row,SMILES,Gyrase Inhibitory Activity (percent inhibition)
1,CCNC(=S)Nc1nc2cc(-c3ccccc3)ccc2[nH]1 [Ia-36],A (provided a percent inhibition value below 50 percent)

# Same assay, conditions: 10 μM concentration; ATPase assay at 30° C., 0.9 mM ATP; average of duplicate values; read-out: Gyrase Inhibitory Activity (percent inhibition)
row,SMILES,inhibition at 10 µM [%]
1,CCOC(=O)Nc1nc2cc(-c3ccccc3)ccc2[nH]1 [Ia-1],50 to 75
2,CCOC(=O)Nc1nc2cc(-c3cccs3)ccc2[nH]1 [Ia-2],50 to 75
3,CCOC(=O)Nc1nc2cc(-c3ccccn3)ccc2[nH]1 [Ia-3],50 to 75
4,CCOC(=O)Nc1nc2cc(-c3ccncc3)ccc2[nH]1 [Ia-4],> 75
5,Nc1nc2cc(-c3ccccc3)ccc2[nH]1 [Ia-6],< 50
6,COC(=O)Nc1nc2cc(-c3ccccc3)ccc2[nH]1 [Ia-7],< 50
7,C#CCOC(=O)Nc1nc2cc(-c3ccccc3)ccc2[nH]1 [Ia-8],< 50
8,CCOC(=O)Nc1nc2cc(-c3ccccc3C(F)(F)F)ccc2[nH]1 [Ia-9],< 50
9,CCOC(=O)Nc1nc2cc(-c3ccccc3)ccc2n1C [Ia-10],< 50
10,"CCOC(=O)Nc1nc2cc(-c3cccnc3)ccc2[nH]1 [Ia-11, (5-Pyridin-3-yl-1H-benzoimidazol-2-yl)-carbamic acid ethyl ester]",> 75
11,CCOC(=O)Nc1nc2cc(-c3ccc(N(C)C)cc3)ccc2[nH]1 [Ia-12],50 to 75
12,CCCc1cc(-c2ccccc2)cc2nc(NC(=O)OCC)[nH]c12 [Ia-13],< 50
13,CCOC(=O)Nc1nc2cc(-c3cc(F)c(F)cc3F)ccc2[nH]1 [Ia-14],50 to 75
14,CCOC(=O)Nc1nc2cc(-c3cccc(OCC)c3)ccc2[nH]1 [Ia-15],50 to 75
15,CCOC(=O)Nc1nc2cc(-c3cnc(OC)nc3OC)ccc2[nH]1 [Ia-16],> 75
16,CCOC(=O)Nc1nc2cc(-c3cccnc3)cc(Br)c2[nH]1 [Ia-17],> 75
17,CCOC(=O)Nc1nc2cc(-c3ccc(OC)nc3)ccc2[nH]1 [Ia-18],> 75
18,CCOC(=O)Nc1nc2cc(-c3ccccc3)cc(Br)c2[nH]1 [Ia-19],> 75

row,SMILES,inhibition at 10 µM [%]
1,O=C(Nc1nc2cc(-c3ccccc3)cc(Br)c2[nH]1)N1CCCCC1 [Ia-20],< 50
2,CCOC(=O)Nc1nc2cc(-c3cncnc3)ccc2[nH]1 [Ia-21],> 75
3,CCOC(=O)Nc1nc2cc(-c3cnc(OC)nc3)ccc2[nH]1 [Ia-22],> 75
4,CCOC(=O)Nc1nc2cc(-c3ccc(OC)cc3)ccc2[nH]1 [Ia-23],> 75
5,CCOC(=O)Nc1nc2cc(-c3cccc(C(=O)O)c3)ccc2[nH]1 [Ia-24],> 75
6,CCOC(=O)Nc1nc2cc(-c3ccc(OC)c(OC)c3)ccc2[nH]1 [Ia-26],50 to 75
7,CCNC(=O)Nc1nc2cc(C(=O)O)ccc2[nH]1 [Ia-33],< 50
8,CCNC(=S)Nc1nc2cc(-c3cccnc3)ccc2[nH]1 [Ia-34],> 75
9,CCNC(=O)Nc1nc2cc(-c3cnc(NCC(=O)O)nc3)ccc2[nH]1 [Ia-35],> 75
10,CCNC(=S)Nc1nc2cc(-c3cnc(NCC(=O)OC(C)(C)C)nc3)ccc2[nH]1 [Ia-37],> 75
11,O=C(Nc1nc2cc(-c3cccnc3)ccc2[nH]1)NC1CC1 [Ia-38],50 to 75
12,CCNC(=S)Nc1nc2cc(-c3cnc(NCC(=O)O)nc3)ccc2[nH]1 [Ia-39],> 75
13,CCNC(=O)Nc1nc2cc(-c3cnc(NC(COC(C)(C)C)C(=O)OC(C)(C)C)nc3)ccc2[nH]1 (stereo not shown) [Ia-40],> 75
14,CC(C)(C)OCC(Nc1ncc(-c2ccc3[nH]c(NC#N)nc3c2)cn1)C(=O)OC(C)(C)C (stereo not shown) [Ia-41],< 50
15,CCNC(=O)Nc1nc2cc(-c3ccccc3)cc(C)c2[nH]1 [Ia-43],> 75
16,CCNC(=O)Nc1nc2cc(-c3cnc(NC4CC4)nc3)ccc2[nH]1 [Ia-44],> 75
17,CCNC(=O)Nc1nc2cc(-c3cnc(NC(CO)C(=O)O)nc3)ccc2[nH]1 (stereo not shown) [Ia-45],> 75
18,CCNC(=O)Nc1nc2cc(C(=O)NOC(C)(C)C)ccc2[nH]1 [Ia-46],< 50
